Conditions: Liquid, Vibrating tube method

CCCC[n+]1cccc(C)c1.N#C[N-]C#N [1-butyl-3-methylpyridinium dicyanamide]
Conditions	mass density [kg/m3]
283.15 K, 100 kPa	1058.8
283.15 K, 5000 kPa	1060.66
283.15 K, 10000 kPa	1062.55
283.15 K, 15000 kPa	1064.33
283.15 K, 20000 kPa	1066.19
283.15 K, 25000 kPa	1067.75
288.15 K, 100 kPa	1055.64
288.15 K, 5000 kPa	1057.59
288.15 K, 10000 kPa	1059.47
288.15 K, 15000 kPa	1061.24
288.15 K, 20000 kPa	1063.09
288.15 K, 25000 kPa	1064.88
288.15 K, 30000 kPa	1066.59
288.15 K, 35000 kPa	1068.35
288.15 K, 40000 kPa	1070.07
288.15 K, 45000 kPa	1071.67
288.15 K, 50000 kPa	1073.24
293.15 K, 100 kPa	1052.56
293.15 K, 5000 kPa	1054.46
293.15 K, 10000 kPa	1056.37
293.15 K, 15000 kPa	1058.23
293.15 K, 20000 kPa	1060.01
293.15 K, 25000 kPa	1061.8
293.15 K, 30000 kPa	1063.56
293.15 K, 35000 kPa	1065.35
293.15 K, 40000 kPa	1066.96
293.15 K, 45000 kPa	1068.69
293.15 K, 50000 kPa	1070.15
293.15 K, 55000 kPa	1072.13
293.15 K, 60000 kPa	1073.41
293.15 K, 65000 kPa	1074.96
298.15 K, 100 kPa	1049.45
298.15 K, 5000 kPa	1051.35
298.15 K, 10000 kPa	1053.24
298.15 K, 15000 kPa	1055.19
298.15 K, 20000 kPa	1057.08
298.15 K, 25000 kPa	1058.87
298.15 K, 30000 kPa	1060.59
298.15 K, 35000 kPa	1062.37
298.15 K, 40000 kPa	1064.1
298.15 K, 45000 kPa	1065.73
298.15 K, 50000 kPa	1067.37
298.15 K, 55000 kPa	1069.04
298.15 K, 60000 kPa	1070.61
298.15 K, 65000 kPa	1072.1
303.15 K, 100 kPa	1046.36
303.15 K, 5000 kPa	1048.3
303.15 K, 10000 kPa	1050.18
303.15 K, 15000 kPa	1052.05
303.15 K, 20000 kPa	1053.94
303.15 K, 25000 kPa	1055.82
303.15 K, 30000 kPa	1057.57
303.15 K, 35000 kPa	1059.35
303.15 K, 40000 kPa	1061.07
303.15 K, 45000 kPa	1062.75
303.15 K, 50000 kPa	1064.4
303.15 K, 55000 kPa	1066.19
303.15 K, 60000 kPa	1067.59
303.15 K, 65000 kPa	1069.21
308.15 K, 100 kPa	1043.21
308.15 K, 5000 kPa	1045.23
308.15 K, 10000 kPa	1047.28
308.15 K, 15000 kPa	1049.14
308.15 K, 20000 kPa	1051.02
308.15 K, 25000 kPa	1052.92
308.15 K, 30000 kPa	1054.8
308.15 K, 35000 kPa	1056.51
308.15 K, 40000 kPa	1058.23
308.15 K, 45000 kPa	1059.9
308.15 K, 50000 kPa	1061.71
308.15 K, 55000 kPa	1063.27
308.15 K, 60000 kPa	1064.76
308.15 K, 65000 kPa	1066.44
313.15 K, 100 kPa	1040.26
313.15 K, 5000 kPa	1042.22
313.15 K, 10000 kPa	1044.29
313.15 K, 15000 kPa	1046.25
313.15 K, 20000 kPa	1048.15
313.15 K, 25000 kPa	1050.05
313.15 K, 30000 kPa	1051.8
313.15 K, 35000 kPa	1053.63
313.15 K, 40000 kPa	1055.42
313.15 K, 45000 kPa	1057.11
313.15 K, 50000 kPa	1058.82
313.15 K, 55000 kPa	1060.43
313.15 K, 60000 kPa	1062.05
313.15 K, 65000 kPa	1063.59
318.15 K, 100 kPa	1037.22
318.15 K, 5000 kPa	1039.29
318.15 K, 10000 kPa	1041.17
318.15 K, 15000 kPa	1043.3
318.15 K, 20000 kPa	1045.08
318.15 K, 25000 kPa	1046.98
318.15 K, 30000 kPa	1048.91
318.15 K, 35000 kPa	1050.75
318.15 K, 40000 kPa	1052.38
318.15 K, 45000 kPa	1054.09
318.15 K, 50000 kPa	1055.97
318.15 K, 55000 kPa	1057.54
318.15 K, 60000 kPa	1059.3
318.15 K, 65000 kPa	1060.96
323.15 K, 100 kPa	1034.21
323.15 K, 5000 kPa	1036.41
323.15 K, 10000 kPa	1038.36
323.15 K, 15000 kPa	1040.45
323.15 K, 20000 kPa	1042.21
323.15 K, 25000 kPa	1044.3
323.15 K, 30000 kPa	1046.05
323.15 K, 35000 kPa	1047.94
323.15 K, 40000 kPa	1049.73
323.15 K, 45000 kPa	1051.45
323.15 K, 50000 kPa	1053.22
323.15 K, 55000 kPa	1054.85
323.15 K, 60000 kPa	1056.49
323.15 K, 65000 kPa	1058.03
328.15 K, 100 kPa	1031.21
328.15 K, 5000 kPa	1033.17
328.15 K, 10000 kPa	1035.31
328.15 K, 15000 kPa	1037.3
328.15 K, 20000 kPa	1039.35
328.15 K, 25000 kPa	1041.31
328.15 K, 30000 kPa	1042.96
328.15 K, 35000 kPa	1044.93
328.15 K, 40000 kPa	1046.72
328.15 K, 45000 kPa	1048.66
328.15 K, 50000 kPa	1050.54
328.15 K, 55000 kPa	1052.18
328.15 K, 60000 kPa	1053.85
328.15 K, 65000 kPa	1055.47
333.15 K, 100 kPa	1027.63
333.15 K, 5000 kPa	1030.21
333.15 K, 10000 kPa	1032.34
333.15 K, 15000 kPa	1034.45
333.15 K, 20000 kPa	1036.45
333.15 K, 25000 kPa	1038.36
333.15 K, 30000 kPa	1040.39
333.15 K, 35000 kPa	1042.19
333.15 K, 40000 kPa	1044.05
333.15 K, 45000 kPa	1045.58
333.15 K, 50000 kPa	1047.67
333.15 K, 55000 kPa	1049.26
333.15 K, 60000 kPa	1051.06
333.15 K, 65000 kPa	1052.61

CCCC[n+]1ccccc1.O=S(=O)([O-])C(F)(F)F [1-butylpyridinium trifluoromethanesulfonate]
mass density [kg/m3]
Conditions	303.15 K	308.15 K	313.15 K	318.15 K	323.15 K	328.15 K	333.15 K
100 kPa	1311.77	1307.87	1303.91	1299.91	1296.31	1292.18	1288.27
5000 kPa	1314.63	1310.78	1306.89	1303.07	1298.89	1295.18	1291.41
10000 kPa	1317.44	1313.65	1309.74	1305.66	1302.15	1298.11	1294.46
15000 kPa	1320.2	1316.6	1312.65	1308.66	1304.98	1301.2	1297.41
20000 kPa	1322.82	1319.24	1315.17	1311.4	1307.88	1304.07	1300.4
25000 kPa	1325.53	1321.85	1317.99	1314.14	1310.7	1306.75	1303.31
30000 kPa	1328.06	1324.38	1320.63	1316.74	1313.34	1309.49	1306.06
35000 kPa	1330.48	1326.93	1323.08	1319.52	1315.79	1312.17	1308.77
40000 kPa	1332.93	1329.48	1325.67	1322.07	1318.44	1314.65	1311.33
45000 kPa	1335.28	1331.89	1328.04	1324.29	1321.03	1317.18	1313.93
50000 kPa	1337.67	1333.97	1330.42	1326.61	1323.34	1319.65	1316.36
55000 kPa	1339.98	1336.34	1332.73	1328.88	1325.68	1322	1318.77
60000 kPa	1342.03	1338.51	1334.95	1331.4	1328.01	1324.3	1320.81
65000 kPa	1344.13	1340.54	1337.08	1333.55	1330.03	1326.69	1323.38

From the NIST ThermoML archive (doi:10.1016/j.fluid.2011.12.029)
